Experimental data published in ChEMBL document CHEMBL1201862, “PubChem BioAssay data set” (2004).
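Compound exposure: 48 hours, 5 concentrations, 96-well plates. The concentration for 50% growth inhibition is given as GI50.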 Calls of active or inactive are those of the source. Rule as the data show it: active = GI50 up to about 1.1 µM and inactive = higher.

Key:
Assay in all cases: inhibition of tumour cell growth, NCI panel, 48 h
[1] = system: HCT-116
[2] = system: OVCAR-8
[3] = system: CAKI-1
[4] = system: HCT-15
[5] = system: MOLT-4
[6] = system: EKVX
[7] = system: SR
[8] = system: HOP-92
[9] = system: SN12C
[10] = system: Malme-3M
[11] = system: OVCAR-3
[12] = system: SK-OV-3
[13] = system: K562
[14] = system: SK-MEL-28
[15] = system: IGROV-1
[16] = system: HOP-62
[17] = system: BT-549
[18] = system: SF-268
[19] = system: UO-31

Structure (SMILES) | GI50 [1] | GI50 [2] | GI50 [3] | GI50 [4] | GI50 [5] | GI50 [6] | GI50 [7] | GI50 [8] | GI50 [9] | GI50 [10] | GI50 [11] | GI50 [12] | GI50 [13] | GI50 [14] | GI50 [15] | GI50 [16] | GI50 [17] | GI50 [18] | GI50 [19]
CCOC(=O)c1cnc2oc3ccc(O)cc3c2c1-c1ccccc1 | 57.8 µM (inactive) | 12.7 µM (inactive) | > 100 µM (inactive) | 26.7 µM | 7.4 µM (inactive) | 57.3 µM (inactive) | 22.6 µM (inactive) | 16.3 µM (inactive) | 37.9 µM (inactive) | 23 µM (inactive) | > 100 µM (inactive) | 15.8 µM (inactive) | 17.6 µM (inactive) | 36.6 µM (inactive) | – | – | – | – | –
COc1cc(/C=C2\S/C(=N/Nc3nc(-c4ccc(Br)cc4)cs3)NC2=O)cc(OC)c1OC | 4.49 µM (inactive) | 14.5 µM (inactive) | 18.2 µM (inactive) | 11.3 µM | 3.78 µM (inactive) | 7.8 µM (inactive) | – | 3.63 µM (inactive) | 28.6 µM (inactive) | – | 13.6 µM (inactive) | 13 µM (inactive) | – | 10.4 µM (inactive) | 12 µM (inactive) | 10.5 µM (inactive) | 7.82 µM (inactive) | 20 µM (inactive) | 3.91 µM (inactive)
CCOC(=O)CC(=O)N(c1ccc(OC)cc1)C(C(=O)OC)c1ccccc1 (configuration not stated) | > 100 µM (inactive) | > 100 µM (inactive) | > 100 µM (inactive) | > 100 µM | – | > 100 µM (inactive) | > 100 µM (inactive) | – | > 100 µM (inactive) | – | > 100 µM (inactive) | – | > 100 µM (inactive) | > 100 µM (inactive) | > 100 µM (inactive) | > 100 µM (inactive) | – | > 100 µM (inactive) | 96.2 µM (inactive)
CCOC(=O)c1cnc2oc(/C=N/N3CC(CN4CCOCC4)OC3=O)cc2c1O (configuration not stated) | > 100 µM (inactive) | > 100 µM (inactive) | > 100 µM (inactive) | > 100 µM | > 100 µM (inactive) | > 100 µM (inactive) | > 100 µM (inactive) | > 100 µM (inactive) | > 100 µM (inactive) | > 100 µM (inactive) | > 100 µM (inactive) | > 100 µM (inactive) | > 100 µM (inactive) | > 100 µM (inactive) | > 100 µM (inactive) | > 100 µM (inactive) | – | > 100 µM (inactive) | > 100 µM (inactive)
COc1cc([C@@H]2c3cc4c(cc3[C@@H](OC3OC5COC(C)OC5C(OC(=O)CN5CCN(C)CC5)C3OC(=O)CN3CCN(C)CC3)C3COC(=O)[C@@H]32)OCO4)cc(OC)c1OC(=O)CN1CCN(C)CC1 (some centres not stated) | 25.5 µM (inactive) | 60.8 µM (inactive) | 37.7 µM (inactive) | > 100 µM | 2.49 µM (inactive) | > 100 µM (inactive) | – | > 100 µM (inactive) | 44.1 µM (inactive) | 61.7 µM (inactive) | > 100 µM (inactive) | > 100 µM (inactive) | 67.5 µM (inactive) | – | 72.3 µM (inactive) | 40.2 µM (inactive) | 34.4 µM (inactive) | 75.3 µM (inactive) | 68.9 µM (inactive)
COc1ccc2nc3ccccc3c(NCCCCN(CCCl)CCCl)c2c1 | 0.0733 µM (active) | 0.0218 µM (active) | 0.0253 µM (active) | 0.244 µM | 0.01 µM (active) | 0.535 µM (active) | 0.04 µM (active) | 0.527 µM (active) | 0.0843 µM (active) | 0.112 µM (active) | 0.118 µM (active) | 1.22 µM (inactive) | 0.0376 µM (active) | 0.752 µM (active) | 0.227 µM (active) | 0.655 µM (active) | – | 0.0735 µM (active) | 0.443 µM (active)
CCOC(=O)C1(C)CCc2sc(N)c(C#N)c21 (configuration not stated) | > 100 µM (inactive) | > 100 µM (inactive) | – | > 100 µM | > 100 µM (inactive) | > 100 µM (inactive) | – | > 100 µM (inactive) | > 100 µM (inactive) | > 100 µM (inactive) | – | – | > 100 µM (inactive) | > 100 µM (inactive) | > 100 µM (inactive) | > 100 µM (inactive) | > 100 µM (inactive) | – | > 100 µM (inactive)
CC(=O)Oc1c(C)cc2c(c1C)C(C)(C)CN2C(=O)C(C)(C)C | 67.9 µM (inactive) | > 100 µM (inactive) | – | > 100 µM | 25.4 µM (inactive) | > 100 µM (inactive) | – | 20.1 µM (inactive) | > 100 µM (inactive) | – | 25.2 µM (inactive) | > 100 µM (inactive) | 51.9 µM (inactive) | > 100 µM (inactive) | > 100 µM (inactive) | > 100 µM (inactive) | – | > 100 µM (inactive) | 41.8 µM (inactive)
c1ccc2c(c1)-c1ccccc1C2NC1=NCCO1 | 16.7 µM (inactive) | 20.8 µM (inactive) | 28.5 µM (inactive) | 9.4 µM | 29.4 µM (inactive) | 40.6 µM (inactive) | 30.3 µM (inactive) | 13.9 µM (inactive) | 33.7 µM (inactive) | 13.1 µM (inactive) | 23.1 µM (inactive) | 31.4 µM (inactive) | 32.8 µM (inactive) | 24.9 µM (inactive) | 16.4 µM (inactive) | 22.5 µM (inactive) | – | 30 µM (inactive) | 24.1 µM (inactive)
CNC(=O)c1nn[nH]c1Sc1c([N+](=O)[O-])ncn1C | > 100 µM (inactive) | > 100 µM (inactive) | > 100 µM (inactive) | > 100 µM | > 100 µM (inactive) | > 100 µM (inactive) | – | > 100 µM (inactive) | > 100 µM (inactive) | – | > 100 µM (inactive) | > 100 µM (inactive) | > 100 µM (inactive) | > 100 µM (inactive) | > 100 µM (inactive) | > 100 µM (inactive) | > 100 µM (inactive) | > 100 µM (inactive) | > 100 µM (inactive)
O=C(O)c1ccccc1NC(=S)c1ccccc1 | 48.3 µM (inactive) | 33.9 µM (inactive) | 43 µM (inactive) | 30.3 µM | 67.5 µM (inactive) | 37.8 µM (inactive) | – | 11.8 µM (inactive) | 66.4 µM (inactive) | 19.1 µM (inactive) | 34.4 µM (inactive) | 76.4 µM (inactive) | 39.2 µM (inactive) | – | 25.1 µM (inactive) | 50.4 µM (inactive) | 33 µM (inactive) | 64 µM (inactive) | 51.8 µM (inactive)
CSc1scc2c1/C(=N/NC(N)=O)CCC2 | 70 µM (inactive) | > 100 µM (inactive) | 69.7 µM (inactive) | > 100 µM | 58.1 µM (inactive) | – | – | 2.34 µM (inactive) | > 100 µM (inactive) | – | > 100 µM (inactive) | > 100 µM (inactive) | > 100 µM (inactive) | > 100 µM (inactive) | – | > 100 µM (inactive) | 80 µM (inactive) | 38.5 µM (inactive) | > 100 µM (inactive)
O=C(O)CC1C(=O)OC2C3COC(=O)c4cc(O)c(O)c(O)c4-c4c(cc(O)c(O)c4O)C(=O)OC2C(OC(=O)c2cc(O)c(O)c4c2C1C(O)C(=O)O4)C(OC(=O)c1cc(O)c(O)c(O)c1)O3 (configuration not stated) | 14.6 µM (inactive) | 20.5 µM (inactive) | 17.3 µM (inactive) | 17.5 µM | 27.3 µM (inactive) | 18 µM (inactive) | 33.7 µM (inactive) | 16.7 µM (inactive) | 17.5 µM (inactive) | > 100 µM (inactive) | 18 µM (inactive) | 18.5 µM (inactive) | 36.4 µM (inactive) | 95.5 µM (inactive) | 30.2 µM (inactive) | > 100 µM (inactive) | – | 36.6 µM (inactive) | 27.2 µM (inactive)
CCOc1cc(/C=C2\N=C(c3ccccc3)N(c3nc4ccccc4s3)C2=O)ccc1O | 42.3 µM (inactive) | 34.7 µM (inactive) | 39.9 µM (inactive) | 24.5 µM | 19.5 µM (inactive) | > 100 µM (inactive) | 29.9 µM (inactive) | > 100 µM (inactive) | – | – | 46.8 µM (inactive) | > 100 µM (inactive) | 27.9 µM (inactive) | 64.4 µM (inactive) | 28.6 µM (inactive) | 75 µM (inactive) | – | 42 µM (inactive) | 49 µM (inactive)
Cc1ccc(NC(=S)N/N=C2\C(=O)Nc3ccccc32)cc1 | > 100 µM (inactive) | > 100 µM (inactive) | > 100 µM (inactive) | > 100 µM | > 100 µM (inactive) | 75.9 µM (inactive) | 87.7 µM (inactive) | > 100 µM (inactive) | > 100 µM (inactive) | > 100 µM (inactive) | > 100 µM (inactive) | > 100 µM (inactive) | > 100 µM (inactive) | 4.76 µM (inactive) | 84.7 µM (inactive) | > 100 µM (inactive) | – | 1.69 µM (inactive) | 78.5 µM (inactive)
N#Cc1nc(CCC(C(=O)O)N2C(=O)c3ccccc3C2=O)oc1N (configuration not stated) | > 10 µM (inactive) | > 100 µM (inactive) | > 100 µM (inactive) | > 100 µM | > 100 µM (inactive) | > 100 µM (inactive) | > 100 µM (inactive) | > 100 µM (inactive) | > 100 µM (inactive) | > 100 µM (inactive) | > 100 µM (inactive) | > 100 µM (inactive) | > 100 µM (inactive) | > 100 µM (inactive) | > 100 µM (inactive) | > 100 µM (inactive) | – | > 100 µM (inactive) | > 100 µM (inactive)
CCCCOC(=O)c1cc(C(=CCC[C@H]2CC[C@@]3(C)[C@@H](CC[C@@H]4[C@@H]3CC[C@]3(C)[C@@H](C(C)CCCC(C)C)CC[C@@H]43)C2)c2cc(Cl)c(O)c(C(=O)OCCCC)c2)cc(Cl)c1O (some centres not stated) | > 50 µM (inactive) | > 50 µM (inactive) | > 50 µM (inactive) | > 50 µM | > 5 µM (inactive) | > 50 µM (inactive) | – | > 50 µM (inactive) | > 50 µM (inactive) | – | > 50 µM (inactive) | – | > 5 µM (inactive) | – | > 50 µM (inactive) | > 50 µM (inactive) | > 50 µM (inactive) | > 50 µM (inactive) | –
